Results published in patent US20140219995A1, “INHIBITORS OF BACTERIAL TYPE III SECRETION SYSTEM” (priority 2011, published 2014).
Like-named read-outs stand apart in the source and are kept apart here.

Tests used:
[1] = test system: T3SS-mediated secretion of ExoS′-βLA fusion protein, P. aeruginosa strain MDM973; assay: Effector-β-lactamase (ExoS′-βLA) secretion assay; type: cell-based, Pseudomonas aeruginosa; conditions: for IC50: Pseudomonas aeruginosa
Source text: Effector-β-Lactamase (βLA) Secretion Assays.
P. aeruginosa. A gene encoding an ExoS'-β-lactamase (βLA) fusion protein (comprised of 234 codons of P. aeruginosa effector ExoS fused to the TEM-1 β-lactamase gene lacking secretion signal codons) was constructed by splicing by overlap extension PCR (SOE-PCR) (Choi and Schweizer, 2005, BMC Microbiol., 5:30) using primers 5-10 (Table 3, above), sequence confirmed, cloned into lacI^Q-containing GATEWAY® vector pUCP24GW (see Moir, et al., 2007, J Biomol. Screen., 12:855-64) behind the lac promoter, and introduced into P. aeruginosa by electroporation (see Choi, et al., 2006, J. Microbiol. Methods, 64:391-7). Secretion of fusion proteins was detected by measuring the hydrolysis of the chromogenic β-lactamase substrate nitrocefin in clear 96-well microplates in a modification of a previously described assay (Lee, et al., 2007, Infect. Immun., 75:1089-98). Cells of strain MDM973 (PAK/pUCP24GW-exoS:blaM) were sub-cultured in the morning from overnight growths in LBG into 0.1 ml of LBGIE with or without test compounds and grown for 150 min. Nitrocefin (100 μg/ml final) was added, and A490 measurements taken every minute for 15 min in a Victor^3V 1420 Multilabel HTS Counter (PerkinElmer). Slopes were calculated as a relative measure of the quantity of the effector-βLA fusion protein secreted and were absolutely dependent on induction with IPTG, EGTA, and the presence of a functional pscC gene in the P. aeruginosa cells. Typical signal:background ratios were 6-10.

[2] = test system: T3SS-mediated cytotoxicity of translocated effector protein ExoU in CHO cells; assay: Inhibition of P. aeruginosa ExoU-dependent CHO cell killing (translocation, LDH release); type: cell-based; conditions: Pseudomonas aeruginosa
Source text: Inhibition of P. aeruginosa ExoU-Dependent CHO Cell Killing.
Pseudolipasin, which acts by direct inhibition of the ExoU phospholipase, was used as control inhibitor (Lee, et al, 2007, Infect. Immun., 75:1089-98).

[3] = read-out: Avg. Translocation IC50

## COc1cc2c(cc1CNC(=O)C(C)Oc1ccc(Cl)cc1Cl)OCCO2 (stereo not drawn) [MBX-1998]
[1]; read-out: Avg. Secretion IC50
  IC50: 17.6 µM
[2]; [3]
  IC50: 51.4 µM
other
  melting point: 152 °C

## COc1ccc(CNC(=O)C(C)Nc2ccc(Cl)cc2Cl)cc1 (stereo not drawn) [MBX-2214]
[1]; read-out: Avg. Secretion IC50
  IC50: 24.5 µM
other
  melting point: 125 °C

## COc1ccc(CNC(=O)C(C)Oc2ccc(Cl)cc2Cl)cc1 (stereo not drawn) [MBX-1940]
[2]; [3]
  IC50: 12.5 µM
other
  melting point: 76 °C

## CC(Oc1ccc(Cl)cc1Cl)C(=O)NCc1ccc(F)nc1 (stereo not drawn) [MBX-2677]
[1]; read-out: Avg. Secretion IC50
  IC50: 40 µM
other
  melting point: 55 °C

## CC(Oc1ccc(F)cc1Cl)C(=O)NCc1ccc(F)cc1 (stereo not drawn) [MBX-2029]
[1]; read-out: Avg. Secretion IC50
  IC50: 52.1 µM
[2]; [3]
  IC50: > 100 µM
other
  melting point: 95 °C

## COc1ccc(CNC(=O)C(C)Oc2ccc(F)cc2Cl)cc1OC (stereo not drawn) [MBX-2027]
[1]; read-out: Avg. Secretion IC50
  IC50: 100 µM
other
  melting point: 101 °C

## CC(Oc1ccc(Cl)cc1Cl)C(=O)NCc1cccc(N(C)C)c1 (stereo not drawn) [MBX-1960]
[1]; read-out: Avg. Secretion IC50
  IC50: 12.2 µM
[2]; [3]
  IC50: 58 µM
other
  melting point: 108 °C

## COc1cc(CNC(=O)C(C)Oc2ccc(Cl)cc2Cl)cc(OC)c1OC (stereo not drawn) [MBX-1944]
[1]; read-out: Avg. Secretion IC50
  IC50: 55.5 µM
[2]; [3]
  IC50: > 100 µM
other
  melting point: 119 °C

## CC1Cc2cc(CNC(=O)C(C)Oc3ccc(Cl)cc3Cl)ccc2O1 (stereo not drawn) [MBX-2001]
[1]; read-out: Avg. Secretion IC50
  IC50: 14 µM
[2]; [3]
  IC50: 84 µM
other
  melting point: 100 °C

## COc1ccc(CNC(=O)C(C)Oc2ccc(Cl)cc2Cl)cc1OC (stereo not drawn) [MBX-1942]
[2]; [3]
  IC50: > 100 µM
other
  melting point: 127 °C

## CC(Oc1ccc(Cl)cc1Cl)C(=O)NCc1ccc2c(c1)n(C)c(=O)n2C (stereo not drawn) [MBX-1996]
[1]; read-out: Avg. Secretion IC50
  IC50: 25.5 µM
[2]; [3]
  IC50: > 100 µM
other
  melting point: 180 °C

## COc1ccc(CNC(=O)C(C)Oc2ncc(Cl)cc2Cl)cc1OC (stereo not drawn) [MBX-2156]
[1]; read-out: Avg. Secretion IC50
  IC50: 24 µM
[2]; [3]
  IC50: > 100 µM
other
  melting point: 156 °C

## CC(Oc1ccc(Cl)cc1Cl)C(=O)NCc1ccc(-c2ccccc2)cc1 (stereo not drawn) [MBX-2022]
[1]; read-out: Avg. Secretion IC50
  IC50: 100 µM
other
  melting point: 114 °C

## CC(Oc1ccc(Cl)cc1Cl)C(=O)NCc1ccccc1Cl (stereo not drawn) [MBX-1956]
[2]; [3]
  IC50: 52.3 µM
other
  melting point: 113 °C

## COc1ccc(CNC(=O)C(C)Oc2ccc(F)cc2Cl)cc1 (stereo not drawn) [MBX-2028]
[1]; read-out: Avg. Secretion IC50
  IC50: 75.3 µM
[2]; [3]
  IC50: > 100 µM
other
  melting point: 97 °C

## COc1cccc(CNC(=O)C(C)Oc2ccc(Cl)cc2Cl)c1OC (stereo not drawn) [MBX-1948]
[1]; read-out: Avg. Secretion IC50
  IC50: 10.1 µM
[2]; [3]
  IC50: > 100 µM
other
  melting point: 130 °C

## COc1cccc(CNC(=O)C(C)Oc2ccc(Cl)cc2Cl)c1 (stereo not drawn) [MBX-1941]
[1]; read-out: Avg. Secretion IC50
  IC50: 17.2 µM
other
  melting point: 119 °C

## COC(=O)C(NC(=O)C(C)Oc1ccc(Cl)cc1Cl)c1ccc(F)cc1 (stereo not drawn) [MBX-2705]
[1]; read-out: Avg. Secretion IC50
  IC50: 6 µM
other
  melting point: 84 °C

## CC(Oc1ccc(Cl)cc1Cl)C(=O)NC(CO)c1ccc(F)cc1 (stereo not drawn) [MBX-2625]
[1]; read-out: Avg. Secretion IC50
  IC50: 5 µM

## CC(Oc1ccc(Cl)cc1Cl)C(=O)NC(C(=O)O)c1ccc(F)cc1 (stereo not drawn) [MBX-2707]
[1]; read-out: Avg. Secretion IC50
  IC50: > 100 µM
other
  melting point: 160 °C

## CC(Oc1ccc(Cl)cc1Cl)C(=O)NCc1ccc2c(c1)CCCN2C (stereo not drawn) [MBX-2000]
[1]; read-out: Avg. Secretion IC50
  IC50: 25.7 µM
[2]; [3]
  IC50: > 100 µM
other
  melting point: 119 °C

## COc1ccc(CNC(=O)C(C)Nc2ccc(Cl)cc2Cl)cc1OC (stereo not drawn) [MBX-2213]
[1]; read-out: Avg. Secretion IC50
  IC50: 58.7 µM
other
  melting point: 132 °C

## Cc1ccccc1CNC(=O)C(C)Oc1ccc(Cl)cc1Cl (stereo not drawn) [MBX-1951]
[2]; [3]
  IC50: 66.7 µM
other
  melting point: 128 °C

## CC(C)C(Oc1ccc(Cl)cc1Cl)C(=O)NCc1ccc2c(c1)OCO2 (stereo not drawn) [MBX-2146]
[1]; vs. MBX-1641
  effect of structural alteration on T3SS-mediated secretion inhibition: significantly inferior performance

## CC(Oc1ccc(Cl)cc1Cl)C(=O)NC(C)c1ccc2c(c1)OCO2 (stereo not drawn) [MBX-2187]
[1]; read-out: Avg. Secretion IC50
  IC50: 3.8 µM
[2]; [3]
  IC50: 11 µM
other
  melting point: 109 °C

## CC(Oc1ccc(Cl)cc1Cl)C(=O)NCc1ccc(N2CCCC2=O)cc1 (stereo not drawn) [MBX-1987]
[1]; read-out: Avg. Secretion IC50
  IC50: 18.8 µM
[2]; [3]
  IC50: 20 µM
other
  melting point: 138 °C

## COc1cc(CNC(=O)C(C)Oc2ccc(Cl)cc2Cl)cc(OC)c1 (stereo not drawn) [MBX-1943]
[1]; read-out: Avg. Secretion IC50
  IC50: 18.8 µM
[2]; [3]
  IC50: 23.7 µM
other
  melting point: 111 °C

## CC(Oc1ccc(Cl)cc1Cl)C(=O)CCc1ccc(F)cc1 (stereo not drawn) [MBX-2719, 4-(2,4-dichlorophenoxy)-1-(4-fluorophenyl)pentan-3-one]
[1]; read-out: Avg. Secretion IC50
  IC50: > 100 µM

## COc1ccc(CNC(=O)C(C)Oc2ncc(Cl)cc2Cl)cc1 (stereo not drawn) [MBX-2157]
[1]; read-out: Avg. Secretion IC50
  IC50: 9.9 µM
[2]; [3]
  IC50: > 100 µM
other
  melting point: 135 °C

## CC(Oc1ccc(F)cc1Cl)C(=O)NCc1ccc2c(c1)OCO2 (stereo not drawn) [MBX-2026]
other
  melting point: 95 °C

## CC(Nc1ccc(Cl)cc1Cl)C(=O)NCc1ccc(F)cc1 (stereo not drawn) [MBX-2215]
[1]; read-out: Avg. Secretion IC50
  IC50: 17.2 µM

## O=C(COc1ccc(Cl)cc1Cl)NCc1ccc2c(c1)OCO2 [MBX-1668]
[1]; read-out: Avg. Secretion IC50
  IC50: > 100 µM
[1]; vs. MBX-1641
  effect of structural alteration on T3SS-mediated secretion inhibition: significantly inferior performance
other
  melting point: 117 °C

## CC(Oc1ccc(Cl)cc1Cl)C(=O)N1CCc2cc3c(cc2C1)OCO3 (stereo not drawn) [MBX-2188]
[1]; read-out: Avg. Secretion IC50
  IC50: 114 µM
[1]; read-out: Secretion IC50
  IC50: 114 µM

## CC(Oc1ccc(Cl)cc1Cl)C(=O)NCCCc1ccc(F)cc1 (stereo not drawn) [MBX-2622]
[1]; read-out: Avg. Secretion IC50
  IC50: > 100 µM
other
  melting point: 112 °C

## COc1ccc(CNC(=O)C(C)Oc2ccc(Cl)cc2Cl)c(OC)c1 (stereo not drawn) [MBX-1949]
[1]; read-out: Avg. Secretion IC50
  IC50: 16.9 µM
other
  melting point: 117 °C

## CC(Oc1ccc(Cl)cc1Cl)C(=O)N1CCc2cc(F)ccc2C1 (stereo not drawn) [MBX-2189]
[1]; read-out: Avg. Secretion IC50
  IC50: 111 µM
[1]; read-out: Secretion IC50
  IC50: 111 µM

## CC(Oc1ncc(Cl)cc1Cl)C(=O)NCc1ccc(C2(C(F)(F)F)N=N2)cc1 (stereo not drawn) [MBX-2713]
[1]; read-out: Avg. Secretion IC50
  IC50: > 100 µM
other
  melting point: 112 °C

## CC(Oc1ccc(Cl)cc1Cl)c1nc(-c2ccc(F)cc2)no1 (stereo not drawn) [MBX-2667, 5-[1-(2,4-dichlorophenoxy)ethyl]-3-(4-fluorophenyl)-1,2,4-oxadiazole]
[1]; read-out: Avg. Secretion IC50
  IC50: > 100 µM
other
  melting point: 77 °C

## CC(Oc1ccc(Cl)cc1Cl)C(=O)OCCc1ccc(F)cc1 (stereo not drawn) [MBX-2717, 4-fluorophenethyl 2-(2,4-dichlorophenoxy)propanoate]
[1]; read-out: Avg. Secretion IC50
  IC50: > 100 µM

## CC(Oc1ccc(Cl)cc1Cl)C(=O)N(C)Cc1ccc2c(c1)OCO2 (stereo not drawn) [MBX-2160]
[1]; read-out: Avg. Secretion IC50
  IC50: 10.1 µM
[1]; vs. MBX-1641
  effect of structural alteration on T3SS-mediated secretion inhibition: slightly negative impact
[2]; [3]
  IC50: 24.3 µM

## CC(Oc1ccc(Cl)cc1Cl)C(=O)N1CCc2ccc(F)cc2C1 (stereo not drawn) [MBX-2190]
[1]; read-out: Avg. Secretion IC50
  IC50: 95.6 µM
[1]; read-out: Secretion IC50
  IC50: 95.6 µM
[2]; [3]
  IC50: > 100 µM
[2]; read-out: Translocation IC50
  IC50: ≥ 100 µM

## CC(C)(Oc1ccc(Cl)cc1Cl)C(=O)NCc1ccc2c(c1)OCO2 [MBX-1685]
[1]; read-out: Avg. Secretion IC50
  IC50: > 100 µM
[1]; vs. MBX-1641
  effect of structural alteration on T3SS-mediated secretion inhibition: significantly inferior performance
other
  melting point: 92 °C

## C[C@@H](Oc1ccc(Cl)cc1Cl)C(=O)NCc1ccc2c(c1)OCO2 [MBX-1684]
[1]; read-out: Avg. Secretion IC50
  IC50: 3.7 µM

## CC(Oc1ccc(Cl)cc1Cl)C(=O)NCc1ccc(C2(C(F)(F)F)N=N2)cc1 (stereo not drawn) [MBX-2718]
[1]; read-out: Avg. Secretion IC50
  IC50: > 100 µM
other
  melting point: 117 °C

## CC(Sc1ccc(Cl)cc1Cl)C(=O)NCc1ccc2c(c1)OCO2 (stereo not drawn) [MBX-2161]
[1]; read-out: Avg. Secretion IC50
  IC50: 5 µM
[1]; vs. MBX-1641
  IC50 values lower (T3SS secretion inhibition): 29%
other
  melting point: 137 °C

## CC(Oc1ccc(Cl)cc1Cl)c1nc(Cc2ccc(F)cc2)no1 (stereo not drawn) [MBX-2708, 5-[1-(2,4-dichlorophenoxy)ethyl]-3-(4-fluorobenzyl)-1,2,4-oxadiazole]
[1]; read-out: Avg. Secretion IC50
  IC50: > 100 µM

## CC(Sc1ccc(Cl)cc1Cl)C(=O)NCc1ccc(F)cc1 (stereo not drawn) [MBX-2164]
[1]; read-out: Avg. Secretion IC50
  IC50: 4 µM
other
  melting point: 142 °C

## CC(Oc1ccc(Cl)cc1Cl)C(=O)NCc1cnc2[nH]ccc2c1 (stereo not drawn) [MBX-2709]
[1]; read-out: Avg. Secretion IC50
  IC50: 8.8 µM
other
  melting point: 198 °C
